The target of the first test is T1, human CTPS1 (Homo sapiens, UniProt P17812).
T1 construct: purchased Proteros biostructures GmbH
T1 sequence (P17812 1-591): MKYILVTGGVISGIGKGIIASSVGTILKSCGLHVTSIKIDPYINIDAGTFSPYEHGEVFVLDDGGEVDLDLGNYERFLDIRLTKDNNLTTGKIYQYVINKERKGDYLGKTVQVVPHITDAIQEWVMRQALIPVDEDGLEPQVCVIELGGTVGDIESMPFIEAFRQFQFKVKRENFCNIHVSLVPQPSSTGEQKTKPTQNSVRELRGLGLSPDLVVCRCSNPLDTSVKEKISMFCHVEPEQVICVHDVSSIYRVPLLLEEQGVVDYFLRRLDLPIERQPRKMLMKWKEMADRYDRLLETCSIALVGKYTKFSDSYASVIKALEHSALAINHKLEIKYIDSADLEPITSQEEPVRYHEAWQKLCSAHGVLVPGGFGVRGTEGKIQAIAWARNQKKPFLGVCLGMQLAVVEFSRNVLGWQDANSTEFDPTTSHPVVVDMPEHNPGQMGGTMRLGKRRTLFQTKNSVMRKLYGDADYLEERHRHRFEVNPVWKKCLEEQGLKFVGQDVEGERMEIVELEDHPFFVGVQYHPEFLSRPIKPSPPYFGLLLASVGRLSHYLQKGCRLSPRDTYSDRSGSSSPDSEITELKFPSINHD
In words: Human CTPS1 enzyme inhibition (ADP-Glo Max assay). The following applies: Table 23; ADP-Glo Max assay; read-out: CTPS1 (Human CTPS1 Enzyme Inhibition data grouped by potency range, IC50). It is filed as biochemical. The protocol: Biological Example 1—Human CTPS1 Enzyme Inhibition
The enzyme inhibitory activities of compounds invented against the target of interest were determined using the ADP-Glo™ Max assay (Promega, UK). Assays for human CTPS1 were performed in 1× assay buffer containing 50 mM Tris, 10 mM MgCl2, 0.01% Tween-20, pH to 8.0 accordingly. Finally, immediately before use, L-cysteine was added to the 1× assay buffer to a final concentration of 2 mM. All reagents are from Sigma-Aldrich unless specified otherwise. Human full length active C-terminal FLAG-Hiss-tag CTPS1 (UniProtKB-P17812, CTPS[1-591]-[…]) was obtained from Proteros biostructures GmbH.
3× human CTPS1 protein was prepared in 1× assay buffer to the final working protein concentration required for the reaction. A 2 uL volume per well of 3× human CTPS1 protein was mixed with 2 uL per well of 3× test compound (compound prepared in 1× assay buffer to an appropriate final 3× compound concentration respective to the concentration response curve designed for the compounds under test) for 10 minutes at 25° C. The enzymatic reaction was then initiated by addition of a 2 uL per well volume of a pre-mixed substrate mix (UltraPure ATP from ADP-Glo™ Max kit (0.31 mM), GTP (0.034 mM), UTP (0.48 mM) and L-glutamine (0.186 mM)) and the mixture was incubated for an appropriate amount of time within the determined linear phase of the reaction at 25° C. under sealed plate conditions with constant agitation at 500 revolutions per minute (rpm). ADP-Glo™ Max reagent was added for 60 minutes (6 μL per well) and subsequently ADP-Glo™ Max development reagent was added for 60 minutes (12 uL per well) prior to signal detection in a microplate reader (EnVision® Multilabel Reader, Perkin Elmer). Following each reagent addition over the course of the assay, assay plates were pulse centrifuged for 30 seconds at 500 rpm.
In all cases, the enzyme converts ATP to ADP and the ADP-Glo™ Max reagent subsequently depletes any remaining endogenous ATP in the reaction system. The ADP-Glo™ Max detection reagent converts the ADP that has been enzymatically produced back into ATP and using ATP as a substrate together with luciferin for the enzyme luciferase, light is generated which produces a detectable luminescence. […] The percentage inhibition produced by each concentration of compound was calculated using the equation shown below: […]
Percentage inhibition was then plotted against compound concentration, and the 50% inhibitory concentration (IC50) was determined from the resultant concentration-response curve.
(ADP-Glo first removes unused ATP, then detects ADP through luciferase.)
Consider `CCOc1cncc(-c2ccc(NC(=O)C(F)(c3ccnc(NS(=O)(=O)C4CC4)n3)C(C)C)nc2)n1` (stereo not drawn) [Example P152], for which the IC50 was no more than 0.1 µM.

For `CCOc1cncc(-c2ccc(NC(=O)C(c3ccnc(NS(=O)(=O)C4CC4)n3)C(C)C)c(F)c2)n1` (stereo not drawn) [Example P153], the IC50 is no more than 0.1 µM.

For `CCOc1cncc(-c2ccc(NC(=O)C(c3ccnc(NS(=O)(=O)C4CC4)n3)C(C)C)nc2)n1` (stereo not drawn) [Example P154], the IC50 was no more than 0.1 µM.

Regarding `CCC(C(=O)Nc1ccc(-c2cncc(C3CC3)n2)cn1)c1ccnc(NS(=O)(=O)C2CC2)n1` (stereo not drawn) [Example P156], the IC50 was no more than 0.1 µM.

Take `CCC(C(=O)Nc1ccc(-c2cncc(OCC(F)(F)F)n2)cn1)c1ccnc(NS(=O)(=O)C2CC2)n1` (stereo not drawn) [Example P157]: the IC50 was no more than 0.1 µM.

On to `CCC(C(=O)Nc1ccc(-c2cncc(C3CC3)n2)cc1F)c1ccnc(NS(=O)(=O)C2CC2)n1` (stereo not drawn) [Example P160], for which the IC50 is no more than 0.1 µM.

`O=C(Cc1cccc(NS(=O)(=O)C2CC2)n1)Nc1ccc(-c2cncc(Cl)c2)cc1` [Example P167]: the IC50 was 0.1 to 1 µM.

For the molecule `N#Cc1cncc(-c2ccc(NC(=O)Cc3cccc(NS(=O)(=O)C4CC4)n3)cc2)c1` [Example P168], the IC50 lay in the range of 0.1 to 1 µM.

`O=C(Cc1cccc(NS(=O)(=O)C2CC2)n1)Nc1ccc(-c2cncc(F)c2)cc1` [Example P169]: the IC50 lay within 0.1 to 1 µM.

Take `COc1cncc(-c2ccc(NC(=O)Cc3cccc(NS(=O)(=O)C4CC4)n3)cc2)c1` [Example P170]: the IC50 was 0.1 to 1 µM.

On to `O=C(Cc1cccc(NS(=O)(=O)C2CC2)n1)Nc1ccc(-c2cccnc2)cc1` [Example P171], for which the IC50 was 1 to 10 µM.

For the molecule `O=C(Cc1cccc(NS(=O)(=O)C2CC2)n1)Nc1ccc(-c2cncc(C(F)(F)F)n2)cc1` [Example P172], the IC50 is 0.1 to 1 µM.

Consider `COc1cncc(-c2ccc(NC(=O)Cc3cccc(NS(=O)(=O)C4CC4)n3)cc2)n1` [Example P173], for which the IC50 is no more than 0.1 µM.

For `O=C(Cc1cccc(NS(=O)(=O)C2CC2)n1)Nc1ccc(-c2cnccn2)cc1` [Example P174], the IC50 was 1 to 10 µM.

Regarding `CC(C)(C(=O)Nc1ccc(-c2cccnc2)cn1)c1cccc(NS(=O)(=O)C2CC2)n1` [Example P175], the IC50 was in the range of 1 to 10 µM.

As to `CC(C)(C(=O)Nc1ccc(-c2cncc(Cl)c2)cc1)c1cccc(NS(=O)(=O)C2CC2)n1` [Example P176], the IC50 lay within 1 to 10 µM.

Regarding `CC(C)(C(=O)Nc1ccc(-c2cncc(F)c2)cc1)c1cccc(NS(=O)(=O)C2CC2)n1` [Example P177], the IC50 was in the range of 1 to 10 µM.

In the case of `CCOc1cncc(-c2ccc(NC(=O)C(C)(C)c3cccc(NS(=O)(=O)C4CC4)n3)cc2)c1` [Example P178], the half-inhibitory concentration (IC50) lay within 1 to 10 µM.

With `CC(C)(C(=O)Nc1ccc(-c2cccnc2)cc1)c1cccc(NS(=O)(=O)C2CC2)n1` [Example P179], the half-inhibitory concentration (IC50) lay within 1 to 10 µM.

In the case of `CC(C)(C(=O)Nc1ccc(-c2cnccn2)cc1F)c1cccc(NS(=O)(=O)C2CC2)n1` [Example P180], the IC50 was 1 to 10 µM.

In the case of `CC(C)(C(=O)Nc1ccc(-c2cncc(C(F)(F)F)n2)cc1)c1cccc(NS(=O)(=O)C2CC2)n1` [Example P181], the IC50 lay within 1 to 10 µM.

`CC(C)(C(=O)Nc1ccc(-c2cncc(Cl)n2)cc1)c1cccc(NS(=O)(=O)C2CC2)n1` [Example P182]: the IC50 was in the range of 0.1 to 1 µM.

`CCOc1cncc(-c2ccc(NC(=O)C(C)(C)c3cccc(NS(=O)(=O)C4CC4)n3)cc2)n1` [Example P183]: the IC50 lay within 0.1 to 1 µM.

Turning to `COc1cncc(-c2ccc(NC(=O)C(C)(C)c3cccc(NS(=O)(=O)C4CC4)n3)cc2)n1` [Example P184], the IC50 is 0.1 to 1 µM.

Consider `CC(C)(C(=O)Nc1ccc(-c2cnccn2)cc1)c1cccc(NS(=O)(=O)C2CC2)n1` [Example P185], for which the IC50 was 1 to 10 µM.

For the molecule `CCOc1cncc(-c2ccc(NC(=O)C3(c4cccc(NS(=O)(=O)C5CC5)n4)CCOCC3)nc2)n1` [Example P186], the IC50 is no more than 0.1 µM.

Take `O=C(Cc1cncc(NS(=O)(=O)C2CC2)n1)Nc1ccc(-c2cccnc2)cc1` [Example P192]: the IC50 lay within 1 to 10 µM.

On to `CCS(=O)(=O)Nc1cncc(CC(=O)Nc2ccc(-c3cccnc3)cc2)n1` [Example P193], for which the IC50 lay in the range of 1 to 10 µM.

In the case of `CCOc1cncc(-c2ccc(C(=O)NC3(c4ccnc(NS(=O)(=O)C5CC5)n4)CC3)c(F)c2)n1` [Example P209], the IC50 was 0.1 to 1 µM.

Still in this test, the particulars now being: Table 24; ADP-Glo Max assay; read-out: CTPS1 (Human CTPS1 Enzyme Inhibition data grouped by potency range, IC50).
As for `CCOc1cncc(-c2ccc(CNC(CC)c3ccnc(NS(=O)(=O)C4CC4)n3)c(F)c2)n1` (stereo not drawn) [Example P235, N-(4-(1-((4-(6-Ethoxypyrazin-2-yl)-2-fluorobenzyl)amino)propyl)pyrimidin-2-yl)cyclopropanesulfonamide], the 50% inhibitory concentration (IC50) lay within 0.1 to 1 µM.

`CCOc1cncc(-c2ccc(CNC3(c4ccnc(NS(=O)(=O)C5CC5)n4)CC3)nc2)n1` [Example P254]: the half-maximal inhibitory concentration (IC50) fell in the range of 0.1 to 1 µM.

With `CCOc1cncc(-c2ccc(CNC3(c4ccnc(NS(=O)(=O)C5CC5)n4)CC3)c(F)c2)n1` [Example P255], the IC50 lay within 0.1 to 1 µM.

For the molecule `CCOc1cncc(-c2ccc(NCC3(c4ccnc(NS(=O)(=O)C5CC5)n4)CCOCC3)cc2)n1` [Example P256], the IC50 fell in the range of 0.1 to 1 µM.

Consider `CCOc1cncc(-c2ccc(NC(=O)C3(c4ccnc(NS(=O)(=O)C5CC5)n4)CC4(C3)OCCO4)nc2)n1` [Example P258], for which the concentration for half-maximal inhibition (IC50) was no more than 0.1 µM.

As for `CCOc1cncc(-c2ccc(NC(=O)C3(c4ccnc(NS(=O)(=O)C5CC5)n4)CCC(OC)CC3)nc2)n1` (stereo not drawn) [Example P260], the IC50 was no more than 0.1 µM.

The test is the same for the next values; noted with them: Table 25; compounds where R1 is substituted by CN; read-out: CTPS1 (Human CTPS1 Enzyme Inhibition data grouped by potency range, IC50).
`CCOc1cncc(-c2ccc(NC(=O)C3(c4ccnc(NS(=O)(=O)C5(C#N)CC5)n4)CCOCC3)nc2)n1` [Example P285, 4-(2-((1-cyanocyclopropane)-1-sulfonamido)pyrimidin-4-yl)-N-(5-(6-ethoxypyrazin-2-yl)pyridin-2-yl)tetrahydro-2H-pyran-4-carboxamide]: the IC50 was no more than 0.1 µM.

Usually IC50 stands for the point on the concentration scale where inhibition reaches its midpoint.

The values are drawn from patent publication US20230002352A1, “SULFONAMIDE DERIVATIVES AS CTPS1 INHIBITORS” (Step Pharma S.A.S., priority 2019, published 2023).
